This note sets out measurements from publication PMC4551797 (PLoS ONE, 2015).

Structures are written as SMILES. Where two headings read alike, the source gives them in different places.

One assay deals with T1, human TGR5 receptor (Homo sapiens, UniProt Q8TDU6).
T1 construct: in cells with endogenous levels of receptor; host or cells: NCI-H716 (human enteroendocrine)
T1 sequence (Q8TDU6 1-330): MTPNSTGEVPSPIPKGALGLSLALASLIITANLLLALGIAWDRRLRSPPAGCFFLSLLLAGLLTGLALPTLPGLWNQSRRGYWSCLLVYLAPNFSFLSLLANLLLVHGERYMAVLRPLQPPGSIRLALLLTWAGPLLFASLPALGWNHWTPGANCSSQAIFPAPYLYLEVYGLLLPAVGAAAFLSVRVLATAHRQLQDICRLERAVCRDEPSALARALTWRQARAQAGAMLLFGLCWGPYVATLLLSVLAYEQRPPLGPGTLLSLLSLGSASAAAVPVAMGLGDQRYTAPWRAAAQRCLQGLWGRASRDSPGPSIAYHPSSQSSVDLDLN
Put plainly: cAMP production in NCI-H716 enteroendocrine cells (endogenous TGR5). Type of assay: cell-based. Here is the method:
(§1) HEK-293 cells were obtained from ATCC and a clonal HEK-293 line overexpressing mouse TGR5 was prepared. Both were maintained in Dulbecco’s modified Eagle’s medium (DMEM) containing 10% fetal bovine serum (FBS) and penicillin /streptomycin. Mouse STC-1 cells were obtained from ATCC under agreement with the Cold Spring Harbor Laboratories and maintained in DMEM containing 10% FBS and penicillin /streptomycin. NCI-H716 cells were obtained from ATCC and were maintained in RPMI-1640 with 10% FBS. NCI-H716 cells were cultured in 96 well plate coated with Matrigel (BD). After 72 hours, cAMP production stimulated with TGR5 agonists was measured using HTRF cAMP assay kit (CISBIO). The level of cAMP in suspensions of STC-1 cells stimulated with increasing concentrations of TGR5 agonists was also determined. […] The production of GLP-1 was determined using a GLP-1 Assay (7–36) amide kit (Mesoscale Discovery) following the manufacturer’s instructions. […]
(§2) Compound 18 is a novel small molecule agonist of TGR5 developed by Eli Lilly and Company (MW = 508.62, Fig 2A). […] In order to determine potency of compound 18 for the mouse and human TGR5 receptor in cells with endogenous levels of receptor, we measured compound 18-stimulated cAMP production and GLP-1 secretion in both mouse (STC-1) and human (NCI-H716) enteroendocrine cell lines, that we have shown to express TGR5 natively (Fig 1). […]
Background: Changes in cAMP serve as a functional read-out for many G protein-coupled receptors.

The next assay deals with DIO C57BL/6 mice. The assay is described as follows: Oral glucose tolerance test in diet-induced obese mice, acute or after 2-week dosing. Type of assay: in vivo, mouse. To be noted: 2 g/kg glucose. As to the method: For measurement of glucose only, overnight-fasted C57BL/6 mice in a normal light cycle were orally dosed with vehicle or compound, followed by an oral bolus of 3 g/kg glucose at 15 minutes post compound. At 0, 20, 40, 60, and 120 minutes post glucose dose, blood glucose was assessed via glucometers. Resulting raw data was used to generate AUCs. For measurement of hormones and glucose, overnight-fasted C57BL/6 mice acclimated for two weeks to a reverse light cycle were orally dosed with vehicle or compound, followed by an oral bolus of 3 g/kg glucose at 15 minutes post compound. At 0, 2, 5, 10, 20, 40, and 60 minutes post glucose dose, blood glucose was assessed via glucometers, followed immediately by collection of plasma for active GLP-1 (Mesoscale Discovery), insulin (Mesoscale Discovery), and total PYY. […] At 0, 15, 30, 60, and 120 minutes post glucose dose, blood glucose was assessed via glucometers. […]
While compound 18 led to significant glucose lowering in an OGTT studies when dosed acutely, it remained unclear if the mechanism of TGR5-stimulated GLP-1 secretion desensitizes over time. […] For the chronic study, DIO mice were orally dosed with vehicle or 60 mg/kg compound 18 once a day for two weeks; body weights and food intake were measured during the treatment period. […]

In the next assay the test system is STC-1 cells. Put plainly: GLP-1 secretion in STC-1 enteroendocrine cells. Type of assay: cell-based. Particulars: Mus musculus. As to the method:
as §1, §2

The term EC50 denotes the midpoint of the concentration-response curve. In the case of `CC(=O)N1CCC(C(C)N(C(=O)COc2cccc3sc4nc(C)cn4c23)c2ccc(F)cc2)CC1` (centres unmarked) [compound 18], the EC50 on human TGR5 receptor stood at 3100 nM; with STC-1 cells (read-out: EC50, GLP-1 secretion), 307 nM; in the assay with STC-1 cells (unit inferred, x-axis in nM, read-out: EC50 STC-1 (Fig 2D inset, GLP-1 secretion)), 307 nM. Also, the “reduction in the glucose excursion (OGTT)” value with DIO C57BL/6 mice (acute, single 60 mg/kg oral dose) turned out to be 33 ± 5%; with DIO C57BL/6 mice (chronic, 60 mg/kg oral once a day for two weeks), 27 ± 6%.
